Results taken from US11992497B2 (priority 2021, dated 2024).
Like-named read-outs stand apart in the source and are kept apart here.

Legend:
[1] = biological target: T1, UGT1A4 (Homo sapiens, UniProt P22310); assay: UGT reaction phenotyping, recombinant Supersomes; format: in vitro ADME; settings: human, recombinant UGT1A4 Supersomes, pH 7.4, Test Conc. 1 μM; for microsomal CLint at 1 µM: read-out: Recombinant UGT CLINT Clearance; for half-life at 1 µM: read-out: Recombinant UGT Half Life T1/2
T1 construct: purchased BD Biosciences
T1 sequence (P22310 29-534): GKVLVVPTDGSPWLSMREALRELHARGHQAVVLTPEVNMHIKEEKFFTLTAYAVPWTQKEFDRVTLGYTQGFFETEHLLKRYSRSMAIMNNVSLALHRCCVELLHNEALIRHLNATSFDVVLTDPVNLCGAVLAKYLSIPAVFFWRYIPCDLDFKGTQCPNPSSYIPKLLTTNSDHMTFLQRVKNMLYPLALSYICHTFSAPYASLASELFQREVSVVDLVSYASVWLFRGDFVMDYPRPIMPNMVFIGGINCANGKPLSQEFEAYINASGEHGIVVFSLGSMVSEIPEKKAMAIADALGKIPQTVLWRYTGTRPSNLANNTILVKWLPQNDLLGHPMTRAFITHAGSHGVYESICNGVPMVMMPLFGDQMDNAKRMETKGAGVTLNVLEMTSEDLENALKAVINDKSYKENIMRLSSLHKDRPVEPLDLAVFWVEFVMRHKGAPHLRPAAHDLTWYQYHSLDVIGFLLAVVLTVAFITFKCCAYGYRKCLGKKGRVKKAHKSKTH
Text: Experimental Summary: UGT Reaction Phenotyping (7 Isoforms).

[2] = system: indomethacin induced intestinal injury; assay: Indomethacin-induced Crohn's disease in rats; format: in vivo; settings: for small intestine weight compared to vehicle: all three treatment groups (50, 200, 800 mg/kg PO, days 0-3); for body weight change (prevention of weight loss): all treatment groups (50, 200, 800 mg/kg PO, days 0-3), vs dexamethasone (Compound 2: also vehicle)
Description: The objective of this study was to determine the efficacy of Compound 1 and Compound 2 in a model of Crohn's disease (indomethacin induced intestinal injury) in rats.
The study design was identical for Compound 1 and Compound 2. On study day −3, rats were weighed and distributed into treatment groups based on body weight.
On study day 0, treatment was initiated and continue as indicated in the Study Design Tables below. Groups 2-6 received a subcutaneous injection of indomethacin (9 mg/kg, 1 ml/kg) in 5% sodium bicarbonate (Sterile Water). On study day 1, Groups 2-6 received a second subcutaneous injection of indomethacin (8 mg/kg, 1 ml/kg) in 5% sodium bicarbonate (Sterile Water). Live phase sample & data collection specifics are outlined below. On study day 4, animals will be euthanized, a section of the small intestine will be removed and weighed. Further necropsy sample and data collection is specified below. Overall efficacy of test articles will be based on body weight, small intestine weight (10 cm), small intestine gross score, and histopathology
At necropsy, the small intestines were evaluated visually and given a gross score according to the following criteria: ⋅0=Normal. 0.5=Very Minimal thickening, multifocal in area at risk. 1=Minimal thickening, fairly diffuse in area at risk. 2=Mild to moderate small intestinal/mesenteric thickening throughout area at risk. 3=Moderate thickening with 1 or more definite adhesions that would be easy to separate. 4=Marked thickening with numerous hard to separate adhesions. 5=Severe intestinal lesion resulting in death.
Preserved 9-cm sections of small intestine were trimmed into 6 transverse sections collected at approximately equal intervals along the […] of the intestine, without bias toward lesion presence or absence. These trimmed sections were processed through graded alcohols and a clearing agent, infiltrated and embedded in paraffin, sectioned, and stained with hematoxylin and eosin (H&E).
Small intestine sections from all animals were examined microscopically by a board-certified veterinary pathologist, and observations were entered into a computer-assisted data retrieval system. Cross sections of small intestine were scored for inflammation and necrosis using the following criteria:
The area at risk for development of this lesion is generally approximately 30% of the total area of a cross section of small intestine where the mesentery attaches.
Inflammation is localized to the mesentery and intestinal area at risk for necrosis with slight extension on either side of it. […] In this case, inflammation is scored based on overall severity ranging from 0.5 (very minimal) to 5 (severe) without regard for the extent of necrosis. The mean score for necrosis and inflammation was calculated for each animal and these mean scores were then summed to arrive at a total score. Each section also has a measurement of total width of mucosal necrosis.

[3] = Quantification of CBG and CBG glucuronide in rat plasma (LC-MS/MS); format: in vivo, Sprague-Dawley rat
Description: The purpose of this study was to quantify cannabigerol (CBG) in rat plasma and brain.
Seven- to nine-week-old male and female Sprague-Dawley received either a single dose or once daily dosing for 21 days of vehicle or CBG at three different dosage levels as shown in the Table below.
Approximately 0.2-0.25 mL blood was collected during the first 24 hours after the single dose, and at multiple times points after the terminal dose for the animals receiving daily dosing for 21 days. Liver, kidney, and colon samples were collected and fixed in 10% NBF for 48 hours, then stored in 70% ethanol at room temperature. Brain samples were collected and flash frozen.
Analytical curves were constructed using non-zero standards with CBG concentration ranging from 0.0025 to 2.500 μg/mL and 2.500-100.0 μg/mL in blank rat plasma samples and 1.0 to 2500 ng/mL in blank brain tissues. A blank sample was used to exclude contamination.
Instrument Used: AB SCIEX QTRAP 4500/Shimadzu Prominence LC

[4] = Compound 1 Group 5 (200 mg/kg PO)
[5] = Compound 1 Groups 4 and 5 (50, 200 mg/kg PO)

CCCCCc1cc(O)c(C/C=C(\C)CCC=C(C)C)c(OC)c1 [Compound 1, (E)-2-(3,7-dimethylocta-2,6-dien-1-yl)-3-methoxy-5-pentylphenol]
microsomal CLint at 1 µM [1]: < 2.89 µL/min/mg
half-life at 1 µM [1]: > 240 min
histopathology scores vs vehicle and dexamethasone [2, 4]: significantly lower
necrosis width vs vehicle and dexamethasone [2, 4]: significantly lower
Histopathology scores vs vehicle and positive control [2, 5]: trended lower
necrosis width vs vehicle and positive control [2, 5]: trended lower
small intestine gross score compared to vehicle ([2]; Group 4 (50 mg/kg PO)): trend in lower small intestine gross score
small intestine gross score compared to vehicle ([2]; Groups 5-6 (200, 800 mg/kg PO)): significant reductions
small intestine weight compared to vehicle [2]: significantly lower
body weight change (prevention of weight loss) [2]: trended towards or had significant differences in preventing weight loss

CCCCCc1cc(OC)c(C/C=C(\C)CCC=C(C)C)c(OC)c1 [Compound 2, (E)-2-(3,7-dimethylocta-2,6-dien-1-yl)-1,3-dimethoxy-5-pentylbenzene]
reduction of necrosis width, of vehicle ([2]; Compound 2 Group 5): 99%
histopathology scores vs vehicle and dexamethasone ([2]; Compound 2 Group 5 & 6): significantly lower
necrosis width vs vehicle and dexamethasone ([2]; Compound 2 Group 5 & 6): significantly lower
reduction of necrosis width, of vehicle ([2]; Compound 2 Group 6): 96%
Histopathology scores vs vehicle ([2]; Compound 2 Groups 4-6): lower than the vehicle
necrosis width vs vehicle ([2]; Compound 2 Groups 4-6): lower than the vehicle
small intestine gross score compared to vehicle ([2]; Group 4 (50 mg/kg PO)): trend in lower small intestine gross score
small intestine gross score compared to vehicle ([2]; Groups 5-6 (200, 800 mg/kg PO)): significant reductions
small intestine weight compared to vehicle [2]: significantly lower
body weight change (prevention of weight loss) [2]: trended towards or had significant differences in preventing weight loss

CCCCCc1cc(O)c(C/C=C(\C)CCC=C(C)C)c(O)c1 [CBG, cannabigerol]
CBG concentration in rat plasma (Day 21) ([3]; CBG 10 mg/kg oral gavage once daily, 15 min post Rx): BLQ (BLQ—Below Limit of Quantification (2.5 ng/ml))
CBG concentration in rat plasma (Day 21) ([3]; CBG 10 mg/kg oral gavage once daily, 30 min post Rx): BLQ (BLQ—Below Limit of Quantification (2.5 ng/ml))
CBG concentration in rat plasma (Day 21) ([3]; CBG 10 mg/kg oral gavage once daily, 24 hr post Rx): BLQ (BLQ—Below Limit of Quantification (2.5 ng/ml))
CBG concentration in rat plasma (Day 1) ([3]; CBG 10 mg/kg oral gavage once, 15 min post Rx): BLQ (BLQ—Below Limit of Quantification (2.5 ng/ml))
CBG concentration in rat plasma (Day 1) ([3]; CBG 10 mg/kg oral gavage once, 30 min post Rx): BLQ (BLQ—Below Limit of Quantification (2.5 ng/ml))
CBG concentration in rat plasma (Day 1) ([3]; CBG 10 mg/kg oral gavage once, 4 hr post Rx): BLQ (BLQ—Below Limit of Quantification (2.5 ng/ml))
CBG concentration in rat plasma (Day 1) ([3]; CBG 10 mg/kg oral gavage once, 8 hr post Rx): BLQ (BLQ—Below Limit of Quantification (2.5 ng/ml))
CBG concentration in rat plasma (Day 1) ([3]; CBG 10 mg/kg oral gavage once, 24 hr post Rx): BLQ (BLQ—Below Limit of Quantification (2.5 ng/ml))
CBG concentration in rat plasma (Day 21) ([3]; CBG 30 mg/kg oral gavage once daily, 30 min post Rx): BLQ (BLQ—Below Limit of Quantification (2.5 ng/ml))
CBG concentration in rat plasma (Day 21) ([3]; CBG 30 mg/kg oral gavage once daily, 1 hr post Rx): BLQ (BLQ—Below Limit of Quantification (2.5 ng/ml))
CBG concentration in rat plasma (Day 21) ([3]; CBG 30 mg/kg oral gavage once daily, 2 hr post Rx): BLQ (BLQ—Below Limit of Quantification (2.5 ng/ml))
CBG concentration in rat plasma (Day 21) ([3]; CBG 30 mg/kg oral gavage once daily, 4 hr post Rx): BLQ (BLQ—Below Limit of Quantification (2.5 ng/ml))
CBG concentration in rat plasma (Day 21) ([3]; CBG 30 mg/kg oral gavage once daily, 8 hr post Rx): BLQ (BLQ—Below Limit of Quantification (2.5 ng/ml))
CBG concentration in rat plasma (Day 21) ([3]; CBG 30 mg/kg oral gavage once daily, 24 hr post Rx): BLQ (BLQ—Below Limit of Quantification (2.5 ng/ml))
CBG concentration in rat plasma (Day 1) ([3]; CBG 30 mg/kg oral gavage once, 8 hr post Rx): BLQ (BLQ—Below Limit of Quantification (2.5 ng/ml))
CBG concentration in rat plasma (Day 21) ([3]; CBG 100 mg/kg oral gavage once daily, 24 hr post Rx): BLQ (BLQ—Below Limit of Quantification (2.5 ng/ml))
CBG concentration in rat plasma (Day 1) ([3]; CBG 100 mg/kg oral gavage once, 15 min post Rx): BLQ (BLQ—Below Limit of Quantification (2.5 ng/ml))
CBG concentration in rat plasma (Day 1) ([3]; CBG 100 mg/kg oral gavage once, 30 min post Rx): BLQ (BLQ—Below Limit of Quantification (2.5 ng/ml))
CBG concentration in rat plasma (Day 1) ([3]; CBG 100 mg/kg oral gavage once, 1 hr post Rx): BLQ (BLQ—Below Limit of Quantification (2.5 ng/ml))
CBG concentration in rat plasma (Day 1) ([3]; CBG 100 mg/kg oral gavage once, 2 hr post Rx): BLQ (BLQ—Below Limit of Quantification (2.5 ng/ml))
CBG concentration in rat plasma (Day 1) ([3]; CBG 100 mg/kg oral gavage once, 8 hr post Rx): BLQ (BLQ—Below Limit of Quantification (2.5 ng/ml))
CBG concentration in rat plasma (Day 1) ([3]; CBG 100 mg/kg oral gavage once, 24 hr post Rx): BLQ (BLQ—Below Limit of Quantification (2.5 ng/ml))
concentration at 1 h ([3]; both sexes, Sprague-Dawley, rat, plasma, oral, 10 mg/kg, CBG 10 mg/kg oral gavage once daily, 1 hr post Rx, read-out: CBG concentration in rat plasma (Day 21)): 1.67 ng/mL
concentration at 4 h ([3]; both sexes, Sprague-Dawley, rat, plasma, oral, 10 mg/kg, CBG 10 mg/kg oral gavage once daily, 4 hr post Rx, read-out: CBG concentration in rat plasma (Day 21)): 4.73 ng/mL
concentration at 8 h ([3]; both sexes, Sprague-Dawley, rat, plasma, oral, 10 mg/kg, CBG 10 mg/kg oral gavage once daily, 8 hr post Rx, read-out: CBG concentration in rat plasma (Day 21)): 2.55 ng/mL
concentration at 2 h ([3]; both sexes, Sprague-Dawley, rat, plasma, oral, 10 mg/kg, CBG 10 mg/kg oral gavage once, 2 hr post Rx, read-out: CBG concentration in rat plasma (Day 1)): 12 ng/mL
concentration at 15 min ([3]; both sexes, Sprague-Dawley, rat, plasma, oral, 30 mg/kg, CBG 30 mg/kg oral gavage once, 15 min post Rx, read-out: CBG concentration in rat plasma (Day 1)): 3.8 ng/mL
concentration at 30 min ([3]; both sexes, Sprague-Dawley, rat, plasma, oral, 30 mg/kg, CBG 30 mg/kg oral gavage once, 30 min post Rx, read-out: CBG concentration in rat plasma (Day 1)): 15.2 ng/mL
concentration at 24 h ([3]; both sexes, Sprague-Dawley, rat, plasma, oral, 30 mg/kg, CBG 30 mg/kg oral gavage once, 24 hr post Rx, read-out: CBG concentration in rat plasma (Day 1)): 2.75 ng/mL
concentration at 15 min ([3]; both sexes, Sprague-Dawley, rat, plasma, oral, 100 mg/kg, CBG 100 mg/kg oral gavage once daily, 15 min post Rx, read-out: CBG concentration in rat plasma (Day 21)): 41.6 ng/mL
concentration at 30 min ([3]; both sexes, Sprague-Dawley, rat, plasma, oral, 100 mg/kg, CBG 100 mg/kg oral gavage once daily, 30 min post Rx, read-out: CBG concentration in rat plasma (Day 21)): 178 ng/mL
concentration at 1 h ([3]; both sexes, Sprague-Dawley, rat, plasma, oral, 100 mg/kg, CBG 100 mg/kg oral gavage once daily, 1 hr post Rx, read-out: CBG concentration in rat plasma (Day 21)): 226 ng/mL
concentration at 2 h ([3]; both sexes, Sprague-Dawley, rat, plasma, oral, 100 mg/kg, CBG 100 mg/kg oral gavage once daily, 2 hr post Rx, read-out: CBG concentration in rat plasma (Day 21)): 307 ng/mL
concentration at 4 h ([3]; both sexes, Sprague-Dawley, rat, plasma, oral, 100 mg/kg, CBG 100 mg/kg oral gavage once, 4 hr post Rx, read-out: CBG concentration in rat plasma (Day 1)): 119 ng/mL
concentration of CBG in plasma (in words) ([3]; oral CBG 10-100 mg/kg, Days 1 and 21): low or below the level of quantitation (BLQ)
first pass metabolism to the glucuronide upon oral administration (in words) ([3]; oral CBG, rat): very high first pass metabolism to the glucuronide
microsomal CLint at 1 µM [1]: < 2.89 µL/min/mg
half-life at 1 µM [1]: > 240 min
